{"source": "patent US10813920B2", "about": "“Drug for treating corneal endothelium by promoting cell proliferation or inhibiting cell damage” (THE DOSHISHA, priority 2013, dated 2020)", "key": {"[1]": {"tested_on": "corneal endothelial cells", "assay": "Western blot of apoptosis molecules after UV irradiation", "type": "cell-based", "conditions": "UV 100 J/m^2, 10 μM", "protocol": "*Human corneal endothelial cells (HCEC, where the cells were obtained and culturing method thereof): HCEC was cultured as follows. In short, Descemet's membrane including corneal endothelial cells was peeled off from a corneal for research purchased from the Seattle Eye Bank, and the corneal endothelial cells were mechanically peeled off with a basal membrane. After collagenase (ROCHE catalog No: 10 103 586 001) was used to detach and collect the corneal endothelial cell from the basal membrane (typically 1 mg/mL collagenase A (Roche Applied Science) was used for treatment at 37° C. for 2 hours), the cells were subjected to primary culture. The medium used was Opti-MEM I Reduced-Serum Medium, Liquid (INVITROGEN catalog No.: 31985-070) to which 8% fetal bovine serum (FBS) (BIOWEST, catalog No.: S1820-500), […] of CaCl2.2H2O (SIGMA catalog No.: C7902-500G), 0.08% of chondroitin sulfate (SIGMA catalog No.: C9819-5G), 20 μg/ml of ascorbic acid (SIGMA catalog No.: A4544-25G), 50 μg/ml of gentamicin (INVITROGEN catalog No.: 15710-064) and 5 ng/ml of EGF (INVITROGEN catalog No.: PHG0311) were added and acclimated for a 3T3 feeder cell. Specifically, after digestion at 37° C., HCEC obtained from individual corneas was resuspended in a culture medium and plated on a well of a 12-well plate coated with FNC Coating Mix®. The culture medium was prepared in accordance with a partially-modified disclosed protocol. In short, a basal cultural medium containing OptiMEM-I (Life Technologies), 8% FBS, 5 ng/mL of epithelial growth factor (EGF) (Sigma-Aldrich Co., St. Louis, Mo.), 20 μg/mL of ascorbic acid (Sigma-Aldrich), 200 mg/L calcium chloride (Sigma-Aldrich), 0.08% chondroitin sulfate (Wako Pure Chemical Industries, Osaka) and 50 μg/mL of gentamicin was prepared and an acclimated medium was collected after inactivated 3T3 fibroblasts were cultured. The 3T3 fibroblasts were inactivated as previously described. […] Immunostaining was applied to the cells for observation with a fluorescence microscope. […]"}, "[2]": {"tested_on": "corneal endothelium", "assay": "Monkey corneal endothelial partial disorder model, eye drops, Ki-67 immunostaining", "type": "in vivo, cynomolgus monkey", "conditions": "3 mM eye drops, 50 μl, 4 times a day, right eye; vs base agent in left eye; 5 views per eye; p<0.01", "protocol": "After a stainless steel bar with a diameter of 7 mm was cooled with liquid nitrogen, the bar was contacted with the corneal in both eyes of 2 cynomolgus monkeys (purchased from Shiga University of Medical Science). About 7 mm in diameter of the corneal endothelium fell off to make a partial disorder model.\n50 μl of SB203580 (3 mM) eyedrops was then administered into the right eye 4 times a day. Similarly, eye drops of abase agent, which is phosphate buffer solution, were administered into the left eye as the control.\nExpression of Ki-67 associated with cell proliferation was confirmed to be elevated after administration of SB203580 eye drops by immunostaining. The methodology of immunostaining was in accordance with the above-described Preparation Example 2. The antibodies were changed to antibodies to Ki-67 to conduct the experiment.\nFor a tissue staining inspection, cultured cells were immobilized with 4% formaldehyde for 10 minutes at room temperature (RT) and incubated for 60 minutes with 1% bovine serum albumin (BSA). The antibodies to Ki-67 were diluted 1:200 to conduct the inspection. For secondary antibodies, a 1:1000 dilution of Alexa Fluor® 488 labeling goat antimouse IgG (Life Technologies) was used. […] Slides were then observed under a fluorescence microscope (all-in-one fluorescence microscope, KEYENCE, Osaka, JAPAN). […]"}}}
{"smiles": "C[S+]([O-])c1ccc(-c2nc(-c3ccncc3)c(-c3ccc(F)cc3)[nH]2)cc1", "note": "(stereo not shown) [SB203580, 4-(4-fluorophenyl)-2-(4-methylsulfinylphenyl)-5-(4-pyridyl)-1H-imidazole]", "values": [{"measurement": "activation by cleavage of PARP due to UV irradiation", "setting": "[1]", "value": "suppresses"}, {"measurement": "activation by cleavage of caspase 3 due to UV irradiation", "setting": "[1]", "value": "suppresses"}, {"measurement": "phosphorylated histone H2AX induced by UV irradiation", "setting": "[1]", "value": "suppresses"}, {"measurement": "percentage of Ki67 positive cells in corneal endothelium", "setting": "[2]", "value": "significantly more Ki67 positive cells"}]}
